Experimental data: PubChem BioAssay AID256 (DTP/NCI, 2004)
“And” between values parts separate entries of the source, which are not always exact repeats. Equal entries are not always repeated. Inconclusive results and toxic doses are left out. Rule for the calls: active = survival T/C of 150% or more; inactive = T/C below 125% in these data.

Test system: CD2F1 mice, L1210 leukemia ip, survival T/C
Test: NCI In Vivo Anticancer Drug Screen. Data for tumor model L1210 Leukemia (intraperitoneal) in CD2F1 (CDF1) mice
Details: higher = longer survival
In short: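 In this screen, transplantable tumors were grown in mice given either the compound or its vehicle. Results were expressed as the treated measurement relative to the control measurement.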

[1] = endpoint: mean survival time, dose: 100.0 mg/kg/injection, schedule: Q04DX003 (ip), vehicle: saline with Tween-80
[2] = endpoint: mean survival time, dose: 200.0 mg/kg/injection, schedule: Q04DX003 (ip), vehicle: saline with Tween-80
[3] = endpoint: mean survival time, dose: 400.0 mg/kg/injection, schedule: Q04DX003 (ip), vehicle: saline with Tween-80

Measured: T/C

C[S+]1C=Cc2ccccc2C1c1ccc(Cl)cc1 (centres undefined)
inactive: endpoint: mean survival time, dose: 12.5 mg/kg/injection, schedule: Q04DX002 (ip), vehicle: Klucel (hydroxypropylcellulose) (HPC) 103 % of control | endpoint: mean survival time, dose: 25.0 mg/kg/injection, schedule: Q04DX002 (ip), vehicle: Klucel (hydroxypropylcellulose) (HPC) 100 % of control | endpoint: mean survival time, dose: 50.0 mg/kg/injection, schedule: Q04DX002 (ip), vehicle: Klucel (hydroxypropylcellulose) (HPC) 105 % of control

CC(=O)Nc1c(Cl)c(Cl)c2c(c1Cl)Cc1cc(Br)ccc1-2
inactive: endpoint: mean survival time, dose: 25.0 mg/kg/injection, schedule: Q01DX009 (ip), vehicle: Klucel (hydroxypropylcellulose) (HPC) 109 % of control

N#CCC(=O)NN
inactive: endpoint: mean survival time, dose: 100.0 mg/kg/injection, schedule: Q04DX003 (ip), vehicle: saline 103 % of control | endpoint: mean survival time, dose: 200.0 mg/kg/injection, schedule: Q04DX003 (ip), vehicle: saline 108 % of control

CC[n+]1cccc2ccccc21
inactive: endpoint: mean survival time, dose: 18.8 mg/kg/injection, schedule: Q01DX009 (ip), vehicle: saline 95 % of control | endpoint: mean survival time, dose: 25.0 mg/kg/injection, schedule: Q04DX003 (ip), vehicle: saline 96 % of control | endpoint: mean survival time, dose: 37.5 mg/kg/injection, schedule: Q01DX009 (ip), vehicle: saline 96 % of control

COc1ccc(-c2ncn(-c3ccc(S(=O)(=O)O)cc3)c2-c2ccc(OC)cc2)cc1
inactive: endpoint: mean survival time, dose: 100.0 mg/kg/injection, schedule: Q04DX003 (ip), vehicle: Klucel (hydroxypropylcellulose) (HPC) 95 % of control | endpoint: mean survival time, dose: 200.0 mg/kg/injection, schedule: Q04DX003 (ip), vehicle: Klucel (hydroxypropylcellulose) (HPC) 95 % of control | endpoint: mean survival time, dose: 400.0 mg/kg/injection, schedule: Q04DX003 (ip), vehicle: Klucel (hydroxypropylcellulose) (HPC) 102 % of control

CC(=O)NCN(C)N=O
inactive: endpoint: mean survival time, dose: 100.0 mg/kg/injection, schedule: Q04DX002 (ip), vehicle: saline 91 % of control | endpoint: mean survival time, dose: 200.0 mg/kg/injection, schedule: Q04DX002 (ip), vehicle: saline 91 % of control | endpoint: mean survival time, dose: 400.0 mg/kg/injection, schedule: Q04DX002 (ip), vehicle: saline 91 % of control

C[n+]1c(-c2cccc(OCCOCCOc3cccc(-c4c5cc(N)ccc5c5ccc(N)cc5[n+]4C)c3)c2)c2cc(N)ccc2c2ccc(N)cc21
inactive: endpoint: median survival time, dose: 1.0 mg/kg/injection, schedule: Q01DX009 (ip), vehicle: water 104 % of control | endpoint: median survival time, dose: 2.0 mg/kg/injection, schedule: Q01DX009 (ip), vehicle: saline with Tween-80 101 % of control | endpoint: median survival time, dose: 2.0 mg/kg/injection, schedule: Q01DX009 (ip), vehicle: water 114 % of control and 121 % of control | endpoint: median survival time, dose: 4.0 mg/kg/injection, schedule: Q01DX009 (ip), vehicle: saline with Tween-80 102 % of control | endpoint: median survival time, dose: 4.0 mg/kg/injection, schedule: Q01DX009 (ip), vehicle: water 114 % of control | endpoint: median survival time, dose: 8.0 mg/kg/injection, schedule: Q01DX009 (ip), vehicle: saline with Tween-80 104 % of control | endpoint: median survival time, dose: 8.0 mg/kg/injection, schedule: Q01DX009 (ip), vehicle: water 123 % of control | endpoint: median survival time, dose: 16.0 mg/kg/injection, schedule: Q01DX009 (ip), vehicle: saline with Tween-80 105 % of control | endpoint: median survival time, dose: 32.0 mg/kg/injection, schedule: Q01DX009 (ip), vehicle: saline with Tween-80 102 % of control

Nc1nc(Cl)cc(-c2ccccc2)n1
inactive: [1] 102 % of control | [2] 90 % of control | [3] 90 % of control

COc1ccc(CCNC2C3CC4CC(C3)CC2C4)cc1OC (centres undefined)
inactive: endpoint: mean survival time, dose: 25.0 mg/kg/injection, schedule: Q04DX003 (ip), vehicle: saline with Tween-80 112 % of control | endpoint: mean survival time, dose: 50.0 mg/kg/injection, schedule: Q04DX003 (ip), vehicle: saline with Tween-80 101 % of control | [1] 101 % of control

CO[C@@]12[C@@H]3N[C@@H]3CN1C1=C(C(=O)C(Nc3cccc(O)c3)=C(C)C1=O)[C@@H]2COC(N)=O
inactive: endpoint: median survival time, dose: 1.5 mg/kg/injection, schedule: Q01DX001 (ip), vehicle: water 113 % of control | endpoint: median survival time, dose: 3.0 mg/kg/injection, schedule: Q01DX001 (ip), vehicle: water 119 % of control | endpoint: median survival time, dose: 12.0 mg/kg/injection, schedule: Q01DX001 (ip), vehicle: water 122 % of control

NC(N)=N/N=C\c1c2ccccc2cc2ccccc12
inactive: endpoint: mean survival time, dose: 0.78 mg/kg/injection, schedule: Q01DX009 (ip), vehicle: water 100 % of control | endpoint: mean survival time, dose: 1.56 mg/kg/injection, schedule: Q01DX009 (ip), vehicle: other 101 % of control | endpoint: mean survival time, dose: 1.56 mg/kg/injection, schedule: Q01DX009 (ip), vehicle: water 101 % of control | endpoint: mean survival time, dose: 3.13 mg/kg/injection, schedule: Q01DX009 (ip), vehicle: other 100 % of control | endpoint: mean survival time, dose: 3.13 mg/kg/injection, schedule: Q01DX009 (ip), vehicle: water 116 % of control | endpoint: mean survival time, dose: 6.25 mg/kg/injection, schedule: Q01DX009 (ip), vehicle: other 106 % of control | endpoint: mean survival time, dose: 12.5 mg/kg/injection, schedule: Q01DX009 (ip), vehicle: other 106 % of control | endpoint: mean survival time, dose: 12.5 mg/kg/injection, schedule: Q01DX009 (ip), vehicle: water 105 % of control | endpoint: mean survival time, dose: 25.0 mg/kg/injection, schedule: Q01DX009 (ip), vehicle: other 111 % of control

CSc1nc(NC2OC(CO)C(O)C(O)C2O)c(C(C)=O)c(=O)n1C (centres undefined)
inactive: endpoint: median survival time, dose: 12.5 mg/kg/injection, schedule: Q01DX005 (ip), vehicle: saline with Tween-80 98 % of control | endpoint: median survival time, dose: 25.0 mg/kg/injection, schedule: Q01DX005 (ip), vehicle: saline with Tween-80 98 % of control | endpoint: median survival time, dose: 50.0 mg/kg/injection, schedule: Q01DX005 (ip), vehicle: saline with Tween-80 97 % of control | endpoint: median survival time, dose: 100.0 mg/kg/injection, schedule: Q01DX005 (ip), vehicle: saline with Tween-80 100 % of control | endpoint: median survival time, dose: 200.0 mg/kg/injection, schedule: Q01DX005 (ip), vehicle: saline with Tween-80 88 % of control

CN(C)CCCNC1=C(Cl)C(=O)C(NCCCN(C)C)=C(Cl)C1=O
inactive: endpoint: median survival time, dose: 6.25 mg/kg/injection, schedule: Q01DX009 (ip), vehicle: Klucel (hydroxypropylcellulose) (HPC) 97 % of control | endpoint: median survival time, dose: 12.5 mg/kg/injection, schedule: Q01DX009 (ip), vehicle: Klucel (hydroxypropylcellulose) (HPC) 94 % of control | endpoint: median survival time, dose: 25.0 mg/kg/injection, schedule: Q01DX009 (ip), vehicle: Klucel (hydroxypropylcellulose) (HPC) 96 % of control | endpoint: median survival time, dose: 50.0 mg/kg/injection, schedule: Q01DX009 (ip), vehicle: Klucel (hydroxypropylcellulose) (HPC) 97 % of control

CC1CCN(Cc2c(COc3ccc(Cl)cc3)n(C)c3ccccc23)CC1
inactive: [1] 87 % of control | [2] 93 % of control | [3] 94 % of control
